Assay results as given in publication PMC7843452, “Novel Hybrids of Podophyllotoxin and Coumarin Inhibit the Growth and Migration of Human Oral Squamous Carcinoma Cells” (Frontiers in Chemistry, 2021).

Experiments:
[1] = test system: human oral squamous carcinoma HSC-2 cells; test: CCK-8 antiproliferative assay, HSC-2; format: cell-based; details: Homo sapiens, HSC-2, 72 h, read-out: IC50 (μM) HSC-2
Protocol: (§1) The in vitro antiproliferative activities of target compounds were investigated against human oral squamous carcinoma HSC-2, SCC-9, and A253 cells and human renal tubular epithelial HK-2 cells by Cell Counting Kit-8 (CCK-8) assay. The HSC-2, SCC-9, and A253 cell lines were purchased from Cobioer Biosciences (Nanjing, China), and HK-2 cell line was from KeyGen Biotech (Nanjing, China). The cells were placed into 96-well plates. After 24 h, cells were treated with 0.1% DMSO or different doses of test compounds for 72 h at 37°C in a CO2 incubator. Subsequently, 100 μl of CCK-8 test solution was added and incubated for 3 h at 37°C. The absorbance value of each well was measured at 450 nm.

[2] = test system: human oral squamous carcinoma SCC-9 cells; test: CCK-8 antiproliferative assay, SCC-9; format: cell-based; details: Homo sapiens, SCC-9, 72 h, read-out: IC50 (μM) SCC-9
Protocol: as §1

[3] = test system: human oral squamous carcinoma A253 cells; test: CCK-8 antiproliferative assay, A253; format: cell-based; details: Homo sapiens, A253, 72 h, read-out: IC50 (μM) A253
Protocol: as §1

[4] = test system: human renal tubular epithelial HK-2 cells; test: CCK-8 assay on normal cells, HK-2; format: cell-based; details: Homo sapiens, HK-2, 72 h, read-out: IC50 (μM) HK-2
Protocol: as §1

[5] = test system: HSC-2 cells; test: Cell cycle analysis by flow cytometry (PI); format: cell-based, human; details: 48 h
Protocol: HSC-2 cells were incubated in six-well plates and then treated with 0.1% DMSO or different concentrations of test compounds for 48 h. Subsequently, cells were fixed with 70% ethanol at 4°C overnight. After that, cells were washed with phosphate-buffered saline (PBS) and stained with 100 μl of RNase A at 37°C for 30 min and then 400 μl of propidium iodide (PI) at 4°C for 30 min. The cell cycle was measured by flow cytometry.

[6] = test system: HSC-2 cells; test: Cell apoptosis analysis by flow cytometry (Annexin V/7-AAD); format: cell-based, human; details: HSC-2, 0.1, 0.25 and 0.5 μM, 48 h, dose-dependent
Protocol: HSC-2 cells were seeded into six-well plates, grown overnight at 37°C in a 5% CO2 incubator, and then treated with 0.1% DMSO or different concentrations of test compounds for 48 h. Cells were washed twice with ice-cold PBS and then suspended with 500 μl of binding buffer. Subsequently, 5 μl of Annexin V-APC and 5 μl of 7-AAD were added, and the cells were incubated at room temperature for 15 min in the dark. The samples were analyzed by flow cytometry.

[7] = test system: HSC-2 cells; test: Mitochondrial membrane potential assay (JC-1); format: cell-based, human; details: HSC-2, 0.1, 0.25 and 0.5 μM, 48 h, JC-1, dose-dependent
Protocol: HSC-2 cells were seeded on six-well plates and grown overnight at 37°C in a 5% CO2 incubator. Then, cells were incubated with 0.1% DMSO or different concentrations of compounds at 37°C for 48 h. Subsequently, cells were trypsinized, washed with PBS, and resuspended in incubation buffer containing JC-1 at 37°C for 20 min in a 5% CO2 incubator. The dyeing cells were rinsed, suspended in incubation PBS, and then analyzed d by flow cytometry.

[8] = test system: HSC-2 cells; test: AO/EB double staining assay; format: cell-based, human; details: HSC-2, 0.1, 0.25 and 0.5 μM, 48 h
Protocol: HSC-2 cells were seeded on six-well plates and grown overnight at 37°C in a 5% CO2 incubator. Then, cells were incubated with 0.1% DMSO or different concentrations of compounds at 37°C for 48 h. Subsequently, cells were trypsinized, collected, washed with PBS, and stained with 100 μl of AO/EB dye at room temperature for 15 min in the dark. The dyeing cells were rinsed, suspended in incubation PBS, and then observed under a fluorescence microscope.

[9] = test system: microtubule network in HSC-2 cells; test: Immunofluorescence assay of microtubule network; format: cell-based, human; details: HSC-2, 0.1, 0.25 and 0.5 μM, 48 h, dose-dependent
Protocol: HSC-2 cells were seeded on 24-well plates, grown overnight at 37°C in a 5% CO2 incubator, and then incubated with 0.1% DMSO or different concentrations of compounds at 37°C for 48 h. Cells were washed with PBS, fixed with 4% paraformaldehyde, and then further permeabilized with 0.5% Triton X-100 for 10 min. Subsequently, cells were blocked for 20 min by 50–100 μl of goat serum albumin at room temperature and then treated with α-tubulin primary antibody at 4°C for 2 h. Then, cells were treated with the Alexa Fluor 488-labeled goat anti-rabbit fluorescence secondary antibody at 37°C for 1 h in the dark, and the cell nuclei were labeled by DAPI at room temperature for 5 min. Finally, cells were visualized under a confocal microscope.

[10] = test system: HSC-2 cells; test: Wound healing migration assay; format: cell-based, human; details: HSC-2, 0.1, 0.25 and 0.5 μM, 48 h, dose-dependent
Protocol: HSC-2 cells were seeded on six-well plates and grown to 80% at 37°C in a 5% CO2 incubator. Then, cells were scratched using the tip of the pipette, then washed with PBS to remove the non-adherent cells, and incubated with 0.1% DMSO or different concentrations of compounds at 37°C for 48 h. The images of cell migration were photographed with an inverted fluorescent microscope at 0 and 48 h.

[11] = test system: CDK2; test: Western blot, CDK2; format: cell-based, human; details: HSC-2, 0.1, 0.25 and 0.5 μM, 48 h
Protocol: (§2) After being cultured, HSC-2 cells were treated with 0.1% DMSO or different concentrations of compounds at 37°C for 48 h. Then, cells were collected, washed twice with PBS, and lysed with cold lysis buffer, followed by centrifugation. Then, the total proteins were collected, and protein concentration was quantified using Bradford assay. Equal amounts of proteins were electrophoresed by 10% sodium dodecyl sulfate–polyacrylamide gel electrophoresis (SDS-PAGE) and transferred onto nitrocellulose (NC) membrane. Membranes were blocked with 5% non-fat milk for 2 h, then washed, and incubated with primary antibodies overnight at 4°C. After being washed, the membranes were treated with secondary antibodies at room temperature for 2 h and then visualized using an ECL Western blotting kit.

[12] = test system: cyclin A2; test: Western blot, cyclin A2; format: cell-based, human; details: HSC-2, 0.1, 0.25 and 0.5 μM, 48 h
Protocol: as §2

[13] = test system: cleaved caspase3; test: Western blot, cleaved caspase3; format: cell-based, human; details: HSC-2, 0.1, 0.25 and 0.5 μM, 48 h, concentration-dependent
Protocol: as §2

[14] = test system: cleaved PARP; test: Western blot, cleaved PARP; format: cell-based, human; details: HSC-2, 0.1, 0.25 and 0.5 μM, 48 h, concentration-dependent
Protocol: as §2

[15] = test system: E-cadherin; test: Western blot, E-cadherin; format: cell-based, human; details: HSC-2, 0.1, 0.25 and 0.5 μM, 48 h
Protocol: as §2

[16] = test system: MMP-2; test: Western blot, MMP-2; format: cell-based, human; details: HSC-2, 0.1, 0.25 and 0.5 μM, 48 h
Protocol: as §2

[17] = test system: Beclin1; test: Western blot, Beclin1; format: cell-based, human; details: HSC-2, 0.1, 0.25 and 0.5 μM, 48 h
Protocol: as §2

[18] = test system: LC3; test: Western blot, LC3; format: cell-based, human; details: HSC-2, 0.1, 0.25 and 0.5 μM, 48 h
Protocol: as §2

[19] = test system: p-AMPK; test: Western blot, p-AMPK; format: cell-based, human; details: HSC-2, 0.1, 0.25 and 0.5 μM, 48 h, dose-dependent
Protocol: as §2

[20] = test system: p-AKT; test: Western blot, p-AKT; format: cell-based, human; details: HSC-2, 0.1, 0.25 and 0.5 μM, 48 h
Protocol: as §2

[21] = test system: p-mTOR; test: Western blot, p-mTOR; format: cell-based, human; details: HSC-2, 0.1, 0.25 and 0.5 μM, 48 h
Protocol: as §2

[22] = test system: human breast MCF-7 cells; set-up: method as in Sun et al., 2017; details: in vitro; ref Sun et al., 2017; read-out: IC50 against MCF-7 cells; cited from earlier work
[23] = test system: MGC-803 cells; set-up: method as in Huang et al., 2017; details: in vitro; ref Huang et al., 2017; cited from earlier work
[24] = test system: NCI-H460 cells; set-up: method as in Huang et al., 2017; details: in vitro; ref Huang et al., 2017; cited from earlier work

SMILES: COc1cc([C@@H]2c3cc4c(cc3[C@H](O)[C@H]3COC(=O)[C@H]23)OCO4)cc(OC)c1OC [compound 1, Podophyllotoxin]
- IC50 [1]: 0.011 ± 0.003 µM
- IC50 [2]: 0.009 ± 0.001 µM
- IC50 [3]: 0.01 ± 0.001 µM
- IC50 [4]: 0.04 ± 0.006 µM

SMILES: COc1cc([C@@H]2c3cc4c(cc3[C@H](OC(=O)COc3ccc5ccc(=O)oc5c3)[C@H]3COC(=O)[C@H]23)OCO4)cc(OC)c1OC [12b]
- IC50 [1]: 0.226 ± 0.021 µM
- IC50 [2]: 0.231 ± 0.05 µM
- IC50 [3]: 0.25 ± 0.019 µM
- IC50 [4]: 0.626 ± 0.043 µM
- Effect on cell cycle ([5]; HSC-2, 0.1 μM): significant S accumulation
- Effect on cell cycle ([5]; HSC-2, 0.25 and 0.5 μM): cell cycle arrest at both S and G2 phases
- Induction of apoptosis [6]: obviously induced apoptosis
- Mitochondrial membrane potential (MMP) [7]: significantly decreased
- Morphological change, AO/EB staining [8]: chromatin condensation and shrinkage
- Effect on microtubule network organization [9]: disruption of microtubule network organizations
- Cell migration [10]: inhibited HSC-2 cell migration
- Relative level of CDK2 [11]: suppressed in a concentration-dependent manner
- Relative level of cyclin A2 [12]: suppressed in a concentration-dependent manner
- Relative level of cleaved caspase3 [13]: upregulated
- Relative level of cleaved PARP [14]: upregulated
- Expression of E-cadherin [15]: obviously enhanced
- Expression of MMP-2 [16]: reduced
- Aggregation of Beclin1 [17]: increasing
- Aggregation of LC3 [18]: increasing
- Level of cleavage of LC3 (LC3-II) [18]: upregulated
- p-AMPK expression [19]: upregulated
- Phosphorylation of AKT [20]: downregulated
- mTOR phosphorylation [21]: inhibition

SMILES: COc1cc([C@@H]2c3cc4c(cc3[C@H](OC(=O)COc3ccc5c(C)cc(=O)oc5c3)[C@H]3COC(=O)[C@H]23)OCO4)cc(OC)c1OC [12a]
- IC50 [1]: 0.281 ± 0.024 µM
- IC50 [2]: 0.279 ± 0.041 µM
- IC50 [3]: 0.349 ± 0.063 µM
- IC50 [4]: 0.814 ± 0.173 µM

SMILES: COc1cc(C2c3cc4c(cc3C(OC(=O)CN3CCN(c5ccc(Cl)c(Cl)c5)CC3)C3COC(=O)C23)OCO4)cc(OC)c1OC (stereo not shown) [compound 5]
- IC50 [22]: 2780 ± 150 nM

SMILES: Cc1cc(=O)oc2c(CN3CCN(C(=O)Nc4ccc(Br)c(F)c4)CC3)c(O)ccc12 [compound 10]
- IC50 [23]: 2130 ± 750 nM
- IC50 [24]: 1860 ± 730 nM
